Source: ChEMBL document CHEMBL1201862, “PubChem BioAssay data set” (2004)
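These data come from cells grown in 96-well plates and exposed to compound for 48 hours at five concentrations. Here, GI50 denotes the concentration required for 50% inhibition of growth.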 Activity calls are given as the source filed them. Cut-off read from the data, not from the text of the source: active = GI50 up to about 1.1 µM and inactive = higher.

Legend:
Experiment in all cases: DTP human tumour cell line panel, 48 h
DLD-1 = test system: DLD-1
LOX IMVI = test system: LOX IMVI
IGROV-1 = test system: IGROV-1
HCT-15 = test system: HCT-15
HCC 2998 = test system: HCC 2998
UACC-257 = test system: UACC-257
SNB-19 = test system: SNB-19
OVCAR-3 = test system: OVCAR-3
NCI-H226 = test system: NCI-H226
XF498 = test system: XF498
RXF 393 = test system: RXF 393
M19-MEL = test system: M19-MEL
EKVX = test system: EKVX
SF-295 = test system: SF-295
NCI-H23 = test system: NCI-H23
KM12 = test system: KM12
MCF7 = test system: MCF7
HL-60 = test system: HL-60
CCRF-CEM = test system: CCRF-CEM
SNB-75 = test system: SNB-75

## CCCN1C(=O)/C(=C(/O)C(=O)OCC)C(c2ccc(OC)c(OC)c2)C1=O (centres undefined)
DLD-1
  GI50: > 100 µM (inactive)
LOX IMVI
  GI50: > 100 µM (inactive)
IGROV-1
  GI50: > 100 µM (inactive)
HCT-15
  GI50: > 100 µM
HCC 2998
  GI50: > 100 µM (inactive)
UACC-257
  GI50: > 100 µM (inactive)
SNB-19
  GI50: > 100 µM (inactive)
OVCAR-3
  GI50: > 47.8 µM (inactive)
NCI-H226
  GI50: > 100 µM (inactive)
XF498
  GI50: > 100 µM (inactive)
RXF 393
  GI50: > 100 µM (inactive)
M19-MEL
  GI50: > 100 µM (inactive)
EKVX
  GI50: > 100 µM (inactive)
SF-295
  GI50: > 100 µM (inactive)
NCI-H23
  GI50: > 100 µM (inactive)
KM12
  GI50: > 100 µM (inactive)
MCF7
  GI50: > 100 µM (inactive)
HL-60
  GI50: > 100 µM (inactive)
CCRF-CEM
  GI50: > 100 µM (inactive)
SNB-75
  GI50: > 100 µM (inactive)

## CCOC(=O)c1ccc(N(CCOS(C)(=O)=O)CCOS(C)(=O)=O)cc1
LOX IMVI
  GI50: 48.4 µM (inactive)
IGROV-1
  GI50: 88.5 µM (inactive)
HCT-15
  GI50: 40.9 µM
HCC 2998
  GI50: 60.3 µM (inactive)
UACC-257
  GI50: > 100 µM (inactive)
SNB-19
  GI50: 90.6 µM (inactive)
OVCAR-3
  GI50: 36.6 µM (inactive)
RXF 393
  GI50: 20 µM (inactive)
EKVX
  GI50: 58.3 µM (inactive)
SF-295
  GI50: 51.1 µM (inactive)
NCI-H23
  GI50: 43.3 µM (inactive)
KM12
  GI50: 67.9 µM (inactive)
MCF7
  GI50: 47.3 µM (inactive)
HL-60
  GI50: 39.9 µM (inactive)
CCRF-CEM
  GI50: 23.9 µM (inactive)

## COc1ccc(/C=c2\sc3n(c2=O)CCN=3)cc1
DLD-1
  GI50: > 100 µM (inactive)
LOX IMVI
  GI50: 64.7 µM (inactive)
HCT-15
  GI50: > 100 µM
HCC 2998
  GI50: 62.4 µM (inactive)
UACC-257
  GI50: 47.5 µM (inactive)
OVCAR-3
  GI50: > 100 µM (inactive)
RXF 393
  GI50: 31.1 µM (inactive)
M19-MEL
  GI50: > 100 µM (inactive)
EKVX
  GI50: > 100 µM (inactive)
SF-295
  GI50: > 100 µM (inactive)
NCI-H23
  GI50: > 100 µM (inactive)
KM12
  GI50: > 100 µM (inactive)
HL-60
  GI50: 69.3 µM (inactive)
CCRF-CEM
  GI50: 96.2 µM (inactive)
SNB-75
  GI50: 57.8 µM (inactive)

## C[C@H]1O[C@@H](O[C@H]2[C@@H](O)C[C@H](O[C@H]3[C@@H](O)C[C@H](O[C@H]4CC[C@@]5(C)[C@H](CC[C@@H]6[C@@H]5CC[C@]5(C)[C@@H](C7=CC(=O)OC7)CC[C@]65O)C4)O[C@@H]3C)O[C@@H]2C)C[C@H](O)[C@@H]1O [DIGITOXIN]
IGROV-1
  GI50: 0.0365 µM (active)
HCT-15
  GI50: 0.0305 µM
HCC 2998
  GI50: 0.171 µM (active)
UACC-257
  GI50: 0.0582 µM (active)
SNB-19
  GI50: 0.075 µM (active)
OVCAR-3
  GI50: < 0.0172 µM (active)
NCI-H226
  GI50: 0.0635 µM (active)
RXF 393
  GI50: 0.0175 µM (active)
EKVX
  GI50: 0.0286 µM (active)
SF-295
  GI50: 0.0258 µM (active)
NCI-H23
  GI50: 0.0185 µM (active)
KM12
  GI50: 0.0553 µM (active)
MCF7
  GI50: 0.0413 µM (active)
CCRF-CEM
  GI50: < 0.0199 µM (active)
SNB-75
  GI50: 0.0676 µM (active)

## NCCCN(CCCN)CCN(CCN(CCCN)CCCN)CCN(CCCN)CCCN
LOX IMVI
  GI50: 67.8 µM (inactive)
IGROV-1
  GI50: > 100 µM (inactive)
HCT-15
  GI50: > 100 µM
HCC 2998
  GI50: > 100 µM (inactive)
UACC-257
  GI50: > 100 µM (inactive)
SNB-19
  GI50: > 100 µM (inactive)
OVCAR-3
  GI50: > 100 µM (inactive)
NCI-H226
  GI50: > 100 µM (inactive)
SF-295
  GI50: 55.6 µM (inactive)
NCI-H23
  GI50: > 100 µM (inactive)
MCF7
  GI50: > 100 µM (inactive)
HL-60
  GI50: > 100 µM (inactive)
CCRF-CEM
  GI50: > 10 µM (inactive)
SNB-75
  GI50: 4.95 µM (inactive)

## CCCCN(C)/N=N/c1[nH]cnc1C(N)=O
DLD-1
  GI50: > 100 µM (inactive)
LOX IMVI
  GI50: 36.7 µM (inactive)
IGROV-1
  GI50: > 77.8 µM (inactive)
HCT-15
  GI50: > 100 µM
HCC 2998
  GI50: > 94.4 µM (inactive)
UACC-257
  GI50: > 73.5 µM (inactive)
SNB-19
  GI50: > 100 µM (inactive)
OVCAR-3
  GI50: 99.5 µM (inactive)
NCI-H226
  GI50: > 100 µM (inactive)
XF498
  GI50: 32.4 µM (inactive)
RXF 393
  GI50: > 66.7 µM (inactive)
M19-MEL
  GI50: > 100 µM (inactive)
EKVX
  GI50: > 100 µM (inactive)
SF-295
  GI50: > 94.2 µM (inactive)
NCI-H23
  GI50: > 100 µM (inactive)
KM12
  GI50: > 100 µM (inactive)
MCF7
  GI50: > 100 µM (inactive)
HL-60
  GI50: 60.7 µM (inactive)
CCRF-CEM
  GI50: 52.4 µM (inactive)
SNB-75
  GI50: > 100 µM (inactive)

## COc1ccc(C2COc3cc(OC(C)=O)c(OC(C)=O)cc3C2)cc1 (centres undefined)
DLD-1
  GI50: 20.5 µM (inactive)
LOX IMVI
  GI50: 16.5 µM (inactive)
IGROV-1
  GI50: 26.2 µM (inactive)
HCT-15
  GI50: 20.3 µM
HCC 2998
  GI50: 23.2 µM (inactive)
UACC-257
  GI50: 23.6 µM (inactive)
SNB-19
  GI50: 7.74 µM (inactive)
OVCAR-3
  GI50: 19.6 µM (inactive)
NCI-H226
  GI50: 24.3 µM (inactive)
XF498
  GI50: 8.49 µM (inactive)
RXF 393
  GI50: 15.5 µM (inactive)
M19-MEL
  GI50: 14.2 µM (inactive)
EKVX
  GI50: 27.2 µM (inactive)
SF-295
  GI50: 14.1 µM (inactive)
NCI-H23
  GI50: 27.5 µM (inactive)
KM12
  GI50: 11.4 µM (inactive)
MCF7
  GI50: 29.4 µM (inactive)
HL-60
  GI50: 2.54 µM (inactive)
CCRF-CEM
  GI50: 3.09 µM (inactive)
SNB-75
  GI50: 7.76 µM (inactive)

## c1ccc(-n2cnnc2-c2nsc3ccccc23)cc1
LOX IMVI
  GI50: > 100 µM (inactive)
IGROV-1
  GI50: > 100 µM (inactive)
HCT-15
  GI50: 74 µM
HCC 2998
  GI50: > 100 µM (inactive)
UACC-257
  GI50: > 100 µM (inactive)
SNB-19
  GI50: > 100 µM (inactive)
OVCAR-3
  GI50: 80.2 µM (inactive)
RXF 393
  GI50: > 100 µM (inactive)
M19-MEL
  GI50: > 100 µM (inactive)
EKVX
  GI50: > 100 µM (inactive)
NCI-H23
  GI50: > 100 µM (inactive)
KM12
  GI50: > 100 µM (inactive)
HL-60
  GI50: > 100 µM (inactive)
CCRF-CEM
  GI50: > 100 µM (inactive)
SNB-75
  GI50: 29.5 µM (inactive)

## O=c1ccn([C@@H]2C=C(CO)[C@@H](O)[C@H]2O)c(=O)[nH]1
DLD-1
  GI50: > 625 µM (inactive)
LOX IMVI
  GI50: > 625 µM (inactive)
IGROV-1
  GI50: > 625 µM (inactive)
HCT-15
  GI50: > 625 µM
HCC 2998
  GI50: > 625 µM (inactive)
SNB-19
  GI50: > 625 µM (inactive)
OVCAR-3
  GI50: > 625 µM (inactive)
NCI-H226
  GI50: > 625 µM (inactive)
XF498
  GI50: < 0.0625 µM (active)
RXF 393
  GI50: > 625 µM (inactive)
SF-295
  GI50: > 625 µM (inactive)
NCI-H23
  GI50: > 625 µM (inactive)
KM12
  GI50: > 625 µM (inactive)
MCF7
  GI50: > 625 µM (inactive)
HL-60
  GI50: > 625 µM (inactive)
CCRF-CEM
  GI50: > 625 µM (inactive)
SNB-75
  GI50: 90.4 µM (inactive)

## CCOC(=O)CN(CC)C(=O)NC12CC3CC(CC(C3)C1)C2
DLD-1
  GI50: 65.8 µM (inactive)
LOX IMVI
  GI50: 151 µM (inactive)
IGROV-1
  GI50: 276 µM (inactive)
HCT-15
  GI50: 220 µM
HCC 2998
  GI50: 222 µM (inactive)
UACC-257
  GI50: 144 µM (inactive)
SNB-19
  GI50: 339 µM (inactive)
OVCAR-3
  GI50: 105 µM (inactive)
NCI-H226
  GI50: 160 µM (inactive)
XF498
  GI50: 125 µM (inactive)
RXF 393
  GI50: 173 µM (inactive)
M19-MEL
  GI50: 184 µM (inactive)
EKVX
  GI50: 207 µM (inactive)
SF-295
  GI50: 230 µM (inactive)
NCI-H23
  GI50: 208 µM (inactive)
KM12
  GI50: 255 µM (inactive)
MCF7
  GI50: 177 µM (inactive)
HL-60
  GI50: 103 µM (inactive)
CCRF-CEM
  GI50: 211 µM (inactive)
SNB-75
  GI50: 92.9 µM (inactive)

## COc1ccccc1OCC(COC(=O)Nc1ccccc1)OC(=O)Nc1ccccc1 (centres undefined)
DLD-1
  GI50: > 100 µM (inactive)
LOX IMVI
  GI50: 25.9 µM (inactive)
IGROV-1
  GI50: > 100 µM (inactive)
HCT-15
  GI50: > 100 µM
HCC 2998
  GI50: > 100 µM (inactive)
UACC-257
  GI50: > 100 µM (inactive)
SNB-19
  GI50: 31.5 µM (inactive)
OVCAR-3
  GI50: > 100 µM (inactive)
NCI-H226
  GI50: 36.2 µM (inactive)
XF498
  GI50: 60.4 µM (inactive)
RXF 393
  GI50: 12.8 µM (inactive)
EKVX
  GI50: > 100 µM (inactive)
SF-295
  GI50: 39.1 µM (inactive)
NCI-H23
  GI50: 73.1 µM (inactive)
KM12
  GI50: 68.4 µM (inactive)
HL-60
  GI50: 40.6 µM (inactive)
CCRF-CEM
  GI50: > 100 µM (inactive)
SNB-75
  GI50: 17.1 µM (inactive)
